Assay results as given in article PMC3057987 (PLoS ONE, 2011).
Ends that are not written are not given here.

T1: MDMX-p53 interaction (Homo sapiens, UniProt O15151)
T1 construct: the cDNA of MDMX (1–200 amino acids) was amplified by PCR; made in house; host or cells: MDMX: wheat germ cell-free translation system; p53: E. coli BL21 (DE3) codon+
T1 sequence (O15151 1-200): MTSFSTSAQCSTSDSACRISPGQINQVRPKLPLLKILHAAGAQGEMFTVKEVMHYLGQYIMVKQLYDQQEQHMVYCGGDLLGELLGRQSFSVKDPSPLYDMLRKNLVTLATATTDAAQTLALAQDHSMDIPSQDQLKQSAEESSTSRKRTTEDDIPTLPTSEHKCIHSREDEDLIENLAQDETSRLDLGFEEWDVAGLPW

T2: MDMX (1–200 amino acids) (human, UniProt O15151 1-200)
T2 construct: MDMX, residues 1-200, cDNA amplified from a Human Mosaic cDNA template; also called MDMX(1–200)-FLAG; source: in vitro translated (wheat germ cell-free translation system)
T2 sequence (looked up): T1 sequence (O15151 1-200)

B1: MIP (MDM2 Inhibitory Peptide), synthetic peptide (peptide)
peptide: PRFWEYWLRLME
notes: 12-mer selected by mRNA display from a partially randomized library; also called X12-1; source: synthetic peptide
B2: MIP (F3A), synthetic peptide (peptide)
peptide: PRAWEYWLRLME
notes: MIP with Phe3 replaced by Ala; source: synthetic peptide
B3: MIP (R9A), synthetic peptide (peptide)
peptide: PRFWEYWLALME
notes: MIP with Arg9 replaced by Ala; source: synthetic peptide
B4: MIP (L10A), synthetic peptide (peptide)
peptide: PRFWEYWLRAME
notes: MIP with Leu10 replaced by Ala; source: synthetic peptide
B5: MIP (M11A), synthetic peptide (peptide)
peptide: PRFWEYWLRLAE
notes: MIP with Met11 replaced by Ala; source: synthetic peptide

Legend:
MDM2-p53 interaction = molecular target: T3, MDM2-p53 interaction (Homo sapiens, UniProt Q00987); assay: ELISA of MDM2 (7-300) bound to immobilized His6-p53 in the presence of synthetic peptides; format: binding
T3 construct: In vitro-translated MDM2 (7–300 amino acids) mixed with the synthetic peptides; made in house; host or cells: MDM2: in vitro translated (wheat germ cell-free system for the bait preparation); p53: E. coli BL21 (DE3) codon+
Experimental: (§1) The resulting plasmid was transformed into the E. coli strain BL21 (DE3) codon+. The cells were grown in LB with 50 µg/ml carbenicillin at 37°C to an optical density (OD600) of 0.5 and induced with 1 mM IPTG for 6 h. […] After washing with PBST, the plates were blocked with 5% skim milk at 4°C for 30 min. […] The RNA was purified with the RNeasy mini kit and in vitro-translated in a wheat germ cell-free translation system to produce MDMX protein.

MDMX-p53 interaction = molecular target: T1, MDMX-p53 interaction; assay: ELISA of MDMX (1-200) bound to immobilized His6-p53 in the presence of synthetic peptides; format: binding
Experimental: as §1

HCT116-p53+/+ cells = assay: WST-1 cell viability / cell growth assay in HCT116-p53+/+ cells; format: cell-based; details: plasmid transfection, data not shown
[1] = tested on: p53 pathway in SW480 cells (p53 mt); assay: Activation of the p53 pathway (western blot) in SW480 cells; format: cell-based; details: SW480 cells containing inactive mutated p53, plasmid transfection
Experimental: (§2) Figure 4 Functional analyses of GFP-MIP in living cells. […] (A) Immunoprecipitation assays with anti-GFP were performed followed by western blot with an anti-MDM2 antibody. I, input; F, flow-through; B, beads. (B) The whole cell lysates were analyzed by western blot with antibodies against p53, MDM2, p21 and β-actin. (C) mRNA levels of p53, MDM2, p21 and GAPDH were determined by quantitative reverse transcription-PCR using total RNA extracted from the cells. GAPDH was used for normalization.
(§3) Whole cell lysate was analyzed by western blot analysis with antibodies against p53 (Cell signaling, Beverly, MA, […]), MDM2 (SMP14, Santa Cruz), p21 (SX118, Pharmingen, San Diego, CA, USA) and β-actin (AC-15, Sigma). The blots were developed using an ECL chemiluminescence kit (GE Healthcare, Waukesha, WI, USA).

[2] = tested on: p53 pathway in HCT116-p53+/+ cells; assay: Activation of the p53 pathway (western blot, quantitative RT-PCR) in HCT116-p53+/+ cells; format: cell-based, human; details: plasmid transfection
Experimental: as §2
Figure 5 Activation of the p53 pathway by inhibiting the MDM2-p53 interaction. […] After 48 h, immunoprecipitation assay with anti-FLAG antibody was performed followed by western blot with anti-MDM2 or anti-FLAG antibody. […] After 24 h, the whole cell lysates were analyzed by western blot with antibodies against p53, p21 and β-actin. […] After 24 h, mRNA levels of p53, MDM2, p21 and GAPDH were determined by quantitative reverse transcription-PCR using total RNA extracted from the cells. GAPDH was used for normalization.
as §3
Total RNA was extracted with the RNeasy mini kit from cells. The RNA was used as template for the real-time RT-PCR reaction with the QuantiTect SYBR Green RT-PCR kit (Qiagen) using the p53F and p53R primer set, the mdm2F and mdm2R primer set or the p21F and p21R primer set. The GAPDH gene was used for normalization with the Light cycler primer sets (Roche, Basel, Switzerland).

MDMX (1–200 amino acids) = molecular target: T2, MDMX (1–200 amino acids); assay: ELISA; competition: synthetic peptide at various concentrations mixed with in vitro-translated MDM2 (7–300) or MDMX (1–200) in binding buffer (5% skim milk, 10% glycerol), added to His6-p53 immobilized on copper-coated plates, 1 h at room temperature; detection with anti-MDM2 (SMP14) or anti-FLAG M2; details: one partner purified
[3] = molecular target: T4, MDM2_(7–300) fused to the TAP tag (human (A549 cell-derived cDNA library), UniProt Q00987 7-300); assay: as above; details: one partner purified
T4 construct: MDM2, residues 7-300, cDNA amplified from an A549 cell-derived cDNA library; primers and plasmid are named MDM(1–294) / pCMV-MDM294-CBPzz; The ELISA methods name only 'in vitro-translated MDM2 (7–300 amino acids)'; also called TAP-tagged MDM2; MDM2 (7–300 amino acids); source: in vitro translated (wheat germ cell-free translation system); immobilised on IgG beads for the pull-down
T4 sequence (Q00987 7-300): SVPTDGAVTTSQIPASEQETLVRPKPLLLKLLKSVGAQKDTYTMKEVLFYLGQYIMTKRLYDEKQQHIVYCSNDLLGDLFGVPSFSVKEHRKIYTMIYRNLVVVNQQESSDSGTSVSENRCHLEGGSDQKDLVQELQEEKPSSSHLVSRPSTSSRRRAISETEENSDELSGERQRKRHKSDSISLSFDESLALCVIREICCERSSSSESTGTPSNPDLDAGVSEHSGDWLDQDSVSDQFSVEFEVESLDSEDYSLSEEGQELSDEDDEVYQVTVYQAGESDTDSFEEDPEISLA

Molecule	IC50 (MDM2-p53 interaction) [nM]	IC50 [3] [nM]	other results
PRFWEYALRLME [MIP (W7A)]	> 100000		
PRFWEAWLRLME [MIP (Y6A)]	> 100000		
LTAEHYAAQATS [3A, reference compound]	> 100000		IC50 (MDMX-p53 interaction): > 100000 nM
GFP-MIP: GFP-fused MIP (PRFWEYWLRLME; also: GFP-fused, end not given here)			proliferation of cells expressing the GFP-fused peptide (HCT116-p53+/+ cells): not inhibited; p53 and its targets (MDM2 and p21) at the protein level [1]: not; MDM2 and p21 at the mRNA level ([2]; quantitative RT-PCR): increased; p53 mRNA level ([2]; quantitative RT-PCR): no effect; p53 and its targets (MDM2 and p21) at the protein level ([2]; western blot): increase
B1		10	IC50 (MDMX (1–200 amino acids)): 120 nM
B2		570	
B3		20	
B4		1140	
B5		400	
